From US11447523B2, “Methods for reducing CD36 expression” (Cornell Research Foundation, Inc., priority 2005, dated 2022)
“Also recorded” adds a separate entry of the source. Square brackets hold non-standard residues; d marks the D form. Ends that are not written are not given here.

Columns and labels:
[1] = test system: obstructed kidney after UUO; test: Kidney damage after unilateral ureteral obstruction (HNE, TUNEL, ED1 macrophages, Masson's trichrome); assay type: in vivo, Sprague-Dawley rats; details: rats, SS-31 1 mg/kg ip one day before UUO and daily for 14 days
Experimental: Rats were then killed, kidneys removed, embedded in paraffin and sectioned. Slides were incubated with anti-HNE rabbit IgG and a biotin-linked anti-rabbit IgG was used as secondary antibody. The slides were developed with DAB. Lipid peroxidation, which was increased by UUO, was reduced by SS-31 treatment (FIG. 8).
Rats were then killed, kidneys removed, embedded in paraffin and sectioned. To quantitate nuclei with fragmented DNA, the TUNEL assay were performed with in situ TUNEL kit (Intergen, Purchase, N.Y.). Slides were developed with DAB and counterstained with 10% hematoxylin.
Rats were treated with either saline (n=6) or SS-31 (1 mg/kg ip, n=6) one day prior to induction of UUO, and once a day for 14 days after UUO. Rats were then killed, kidneys removed, embedded in paraffin and sectioned. Slides were treated with monoclonal antibody for ED1 macrophage (1:75; Serotec). Horseradish-peroxidase-linked rabbit anti-mouse secondary antibody (Dako) was used for macrophage detection. Sections were then counterstained with 10% hematoxylin.
Rats were treated with either saline (n=6) or SS-31 (1 mg/kg ip, n=6) one day prior to induction of UUO, and once a day for 14 days after UUO. Rats were then killed, kidneys removed, embedded in paraffin and sectioned. Slides were stained with hematoxylin and eosin and Masson's trichome for interstitial fibrosis (blue stain).

diabetic mice = test: Streptozotocin (STZ)-induced diabetic mice, renal damage; assay type: in vivo, CD-1 mice
Experimental: Streptozotocin (STZ) was used to induce diabetes in mice. Three groups of CD-1 mice were studied. Group I—no STZ treatment; Group II—STZ (50 mg/kg, ip) was given once a day for 5 d; Group III—STZ (50 mg/kg, ip) was given once a day for 5 d, and SS-31 (3 mg/kg, ip) was given once a day for 16 d. […] By week 3, blood glucose values were: Group I (10.6.noteq.0.27 mmol/L); Group II (24.5.noteq.1.15 mmol/L); Group III (21.3 1.48 mmol/L). Animals were sacrificed after 3 weeks and kidney tissues preserved for histopathology. Kidney sections were examined by Periodic Schiff (PAS) staining for renal tubular brush border.
In mice not treated with STZ, the renal brush border in the cortex was stained red with PAS (FIG. 16A, see white arrows).
Kidney sections were examined for apoptosis using the TUNEL assay. After deparaffinization, sections were incubated with deoxynucleotidyl transferase (Tdt) with digoxigenin-dNTP for 1 hour. The reaction was stopped with terminating buffer. A fluorescent anti-digoxigenin antibody was then applied.

[2] = test system: wild-type mice subjected to acute cerebral ischemia; test: Acute cerebral ischemia (30 min middle cerebral artery occlusion) in wild-type mice; assay type: in vivo, mouse; details: WT mice
Experimental: Cerebral ischemia was induced by occlusion of the right middle cerebral artery for 30 min. Wild-type (WT) mice were given either saline vehicle (Veh) (ip, n=19) or SS-31 (2 mg/kg or 5 mg/kg, ip, n=6) at 0, 6, 24 and 48 h after ischemia. Mice were killed 3 days after ischemia. Brains were removed, frozen, and sectioned. Brain sections were stained by the Nissl stain. Infarct volume and hemispheric swelling was determined using an image analyzer. Data were analyzed by one-way ANOVA with posthoc analysis.
(*P<0.05 compared to Veh).

CD36 [3] = test: CD36 immunostaining on renal tubular cells after unilateral ureteral obstruction (UUO); assay type: in vivo, Sprague-Dawley rats; details: rats, SS-31 1 mg/kg ip one day before UUO and daily for 14 days
Experimental: UUO was performed in Sprague-Dawley rats. The rats were treated with saline (ip, n=6) or SS-31 (1 mg/kg ip, n=6) one day prior to induction of UUO, and once a day for 14 days after UUO. Rats were killed, kidneys removed, embedded in paraffin and sectioned. The slides were treated with the anti-CD36 polyclonal IgG (Santa Cruz #sc-9154; 1:100 with blocking serum) at room temperature for 1.5 hours. The slides were then incubated with the second antibody conjugated with biotin (anti-rabbit IgG-G1; ABC kit, PK-6101) at room temperature for 30 min. The slides were then treated with avidin, developed with DAB and counterstained with 10% hematoxylin. The contralateral unobstructed kidney served as the control for each animal.

CD36 [4] = test: CD36 mRNA (real time PCR) in post-ischemic brain of wild-type mice; assay type: in vivo, mouse; details: WT mice, SS-31 5 mg/kg ip at 0 and 6 h after 30 min ischemia
Experimental: Wild-type mice were given saline vehicle (Veh, i.p., n=6) or SS-31 (5 mg/kg, i.p., n=6) at 0 and 6 h after 30 min ischemia, and CD36 mRNA levels were determined using real time PCR.

CD36 [5] = test: CD36 immunostaining in isolated hearts after cold ischemic storage and warm reperfusion; set-up: species or system guinea pig; details: 1 nM SS-31 or 100 nM SS-20 in St. Thomas solution, 18 h at 4° C., 90 min reperfusion at 34° C.
Experimental: Isolated guinea pig hearts were perfused with St. Thomas solution alone, or St. Thomas solution containing 1 nM SS-31 or 100 nM SS-20, for 3 min. and then stored in the same solution at 4° C. for 18 hours. After ischemic storage, hearts were reperfused with 34° C. Kreb-Henseleit solution for 90 min. Hearts freshly isolated from guinea pigs were used as controls.
The hearts were fixed in paraffin and sliced for immunostaining with an anti-CD36 rabbit polyclonal antibody. Two sections are shown for each treatment group. […] The “background” (FIGS. 12A and 12B) represents two sections from a normal non-ischemic heart that was not treated with the primary antibody. “Normal heart” (FIGS. 12C and 12D) represents two sections obtained from a non-ischemic heart.

CD36 [6] = test: CD36 protein expression by western blot in mouse peritoneal macrophages; assay type: cell-based; details: P<0.01
Excerpt: Other controls included CD36 expression from mouse heart (H) and macrophages obtained from CD36 knockout mice (KO). The amount of CD36 protein was normalized to β-actin.

[7] = test system: mouse peritoneal macrophages; test: oxLDL-induced apoptosis of macrophages; assay type: cell-based; details: SS-31 1 nM concurrent with oxLDL (oxLDL alone 32.8%, no oxLDL 6.7%)
Experimental: Incubation of macrophages with oxLDL increased apoptotic cells from 6.7% to 32.8%.

[8] = test system: isolated guinea pig hearts; test: Isolated hearts: lipid peroxidation, endothelial apoptosis and coronary flow after cold ischemia and warm reperfusion; details: 1 nM SS-31 or 100 nM SS-20 in St. Thomas solution; for HNE staining (lipid peroxidation) in stored hearts / endothelial apoptosis in stored hearts / coronary flow restored, of pre-ischemic flow: 18 h at 4° C., 90 min reperfusion; for coronary flow restored, of pre-ischemic flow: pre-ischemic control = 100%; for coronary flow (in words): 18 h cold ischemia, warm reperfusion
Experimental: Guinea pig hearts were perfused with a cardioplegic solution (St. Thomas solution) alone or St. Thomas solution containing either 1 nM SS-31 or 100 nM SS-20 for 3 min. and then subjected to 18 hours of cold ischemia (4° C.). The hearts were then reperfused with Krebs Henseleit buffer at 34° C. for 90 min. Immunohistochemical analysis of 4-hydroxynonenol (HNE)-modified proteins in paraffin sections from tissue slices were performed by incubation with an anti-HNE antibody (Santa Cruz) and a fluorescent secondary antibody. […] HNE staining was reduced in hearts stored in SS-31 (FIG. 13C) or SS-20 (FIG. 13D).
Guinea pig heats were perfused with a cardioplegic solution (St. Thomas solution) alone or St. Thomas solution containing either 1 nM SS-31 or 100 nM SS-20 for 3 min. and then subjected to 18 hours of cold ischemia (4° C.). The hearts were then reperfused with Krebs Henseleit buffer at 34° C. for 90 min. After deparaffinization, sections were incubated with deoxynucleotidyl transferase (Tdt) with digoxigenin-dNTP for 1 hour. The reaction was stopped with terminating buffer. A fluorescent anti-digoxigenin antibody was then applied.
A significant improvement of coronary blood flow after prolonged cold ischemic storage and warm reperfusion occurred (FIG. 15). Guinea pigs hearts were perfused with a cardioplegic solution (St. Thomas solution) alone or St. Thomas solution containing either 1 nM SS-31 (FIG. 15A) or 100 nM SS-20) (FIG. 15B) for 3 min. and then subjected to 18 hours of cold ischemia (4° C.). The hearts were then reperfused with Krebs Henseleit buffer at 34° C. for 90 min.

CD36 [9] = test: oxLDL-induced CD36 mRNA expression in mouse peritoneal macrophages; assay type: cell-based
Experimental: CD36 expression is regulated at the transcriptional level by various cellular stimuli, including glucose and oxLDL. Macrophages were harvested from mice peritoneal cavity and culture overnight in the absence or presence of oxLDL (50 μg/ml) for 48 h.

[10] = test system: mouse peritoneal macrophages; test: oxLDL-induced foam cell formation (oil red O) in macrophages; assay type: cell-based; details: SS-31 1 μM, oxLDL 48 h
Excerpt: Foam cell is indicated by oil red O which stains lipid droplets red.

[11] = test system: CD36 knock-out mice subjected to acute cerebral ischemia; test: Acute cerebral ischemia in CD36 knockout mice; assay type: in vivo, mouse; details: CD36 KO mice
Experimental: CD36 knockout (CD36 KO) mice were subjected to acute cerebral ischemia as described under Example 2. CD36 KO mice were given either saline vehicle (Veh) (ip, n=5) or SS-31 (2 mg/kg, i.p. n=5) at 0, 6, 24 and 48 h after 30 min ischemia.

[12] = SS-31 2 mg/kg or 5 mg/kg ip at 0, 6, 24, 48 h after ischemia, vs saline, P<0.05
[13] = SS-31 2 mg/kg ip at 0, 6, 24, 48 h, vs saline

With D-Arg-2′6′Dmt-Lys-Phe-NH2 [SS-31] the tubular dilation [1] was “Tubular dilation was also observed”, the “number of apoptotic cells (TUNEL) in obstructed kidney” value ([1]; P<0.001, 1 mg/kg) was “significantly reduced; also recorded: reduced tubular cell apoptosis” and the “interstitial fibrosis in obstructed kidney” value ([1]; P<0.05, 1 mg/kg) was “significantly less fibrosis; also recorded: reduced interstitial fibrosis”. The “macrophage infiltration (ED1) in obstructed kidney” value ([1]; P<0.05, 1 mg/kg) was “significantly reduced; also recorded: reduced macrophage infiltration”, the “lipid peroxidation (HNE stain) in obstructed kidney” value ([1]; vs saline, 1 mg/kg) was “significantly less HNE stain; also recorded: reduces lipid peroxidation” and the “blood glucose by week 3” value (diabetic mice; Group III: STZ 50 mg/kg ip 5 d + SS-31 3 mg/kg ip daily 16 d (STZ alone 24.5, no STZ 10.6)) was 21.3 mmol/L. For the same substance, the “effect on blood glucose (in words)” value (diabetic mice; STZ mice, SS-31 3 mg/kg ip daily) was “without affecting blood glucose”, the “architecture of the proximal renal tubules” value (diabetic mice; STZ mice, SS-31 3 mg/kg ip daily, 3 weeks) was “architecture of the proximal renal tubules was preserved” and the “apoptotic cells in proximal tubule (TUNEL)” value (diabetic mice; STZ mice, SS-31 3 mg/kg ip daily, 3 weeks, 3 mg/kg) was “dramatically reduced apoptotic cells in the proximal tubule; also recorded: inhibit tubular cell apoptosis; also recorded: significantly reduced”. The “depletion of GSH in the striatum” value ([2]; SS-31 2 mg/kg ip at 0, 6, 24, 48 h) was “reduced by SS-31 treatment but did not reach statistical significance”, the “depletion of GSH in the ipsilateral cortex” value ([2]; SS-31 2 mg/kg ip at 0, 6, 24, 48 h, 2 mg/kg) was “significantly reduced; also recorded: reduced the decrease in reduced glutathione (GSH)” and the hemispheric swelling [2, 12] was “significant reduction; also recorded: reduced”. For the same substance, the infarct volume [2, 12] was “significant reduction in infarct volume; also recorded: reduced infarct volume”, the “CD36 expression on tubular cells of obstructed kidney” value (CD36 [3]) was “significant reduction in CD36 expression; also recorded: suppresses the upregulation of CD36; also recorded: decreases CD36 expression” and the “CD36 mRNA in the ipsilateral brain” value (CD36 [4]) was “significantly reduced; also recorded: reduced CD36 mRNA expression”. For the same substance, the “CD36 staining in stored hearts” value (CD36 [5]) was “significantly reduced; also recorded: did not show the upregulation of CD36 expression”, the “oxLDL-induced upregulation of CD36 protein expression” value (CD36 [6]; SS-31 1 μM concurrent with 25 μg/ml oxLDL, 48 h) was “significantly inhibited the upregulation of CD36 protein expression; also recorded: reduced” and the “CD36 protein expression versus vehicle control” value (CD36 [6]; SS-31 1 μM, no oxLDL, normalized to β-actin) was “significantly reduced CD36 protein expression”. The “percentage of apoptotic cells induced by oxLDL” value [7] was 20.8%, the “HNE staining (lipid peroxidation) in stored hearts” value [8] was “reduced” and the “endothelial apoptosis in stored hearts” value [8] was “Apoptotic cells were not observed”. The “coronary flow restored, of pre-ischemic flow” value [8] was “approximately 80%”, the “coronary flow (in words)” value [8] was “preserves coronary flow” and the “oxLDL-induced up-regulation of CD36 mRNA” value (CD36 [9]; SS-31 10 nM or 1 μM, oxLDL 50 μg/ml, 48 h) was “abolished the up-regulation of CD36; also recorded: reduced oxLDL-induced CD36 mRNA expression”. The “CD36 expression, peptide by itself” value (CD36 [9]; SS-31 alone, without oxLDL) was “had no effect on CD36 expression”, the “oxLDL-induced foam cell formation” value [10] was “prevented oxLDL-induced foam cell formation; also recorded: reduced” and the “GSH depletion in the ipsilateral cortex” value ([11]; SS-31 2 mg/kg ip) was “failed to further prevent GSH depletion; also recorded: did not reduce GSH depletion”. For the same substance, the hemispheric swelling [11, 13] was “no effect” and the infarct volume [11, 13] was “no effect in reducing infarct volume”.
With F[dR]FK-NH2 [SS-20] the “CD36 staining in stored hearts” value (CD36 [5]) was “significantly reduced; also recorded: did not show the upregulation of CD36 expression”, the “HNE staining (lipid peroxidation) in stored hearts” value [8] was “reduced” and the “endothelial apoptosis in stored hearts” value [8] was “Apoptotic cells were not observed”. For the same substance, the “coronary flow restored, of pre-ischemic flow” value [8] was “approximately 80%” and the “coronary flow (in words)” value [8] was “preserves coronary flow”.
